# Patent US8835433B2, “Optically pure diastereomers of 10-Propargyl-10-deazaaminopterin and methods of using same for the treatment of cancer” (Allos Therapeutics, Inc., priority 2010, dated 2014)
# Read-outs that look alike come from different tables or passages of the source.
# Columns and labels:
# [1] = test system: Type II collagen arthritis; assay: Type II collagen arthritis mouse model; type: in vivo; settings: DBA/1 mice, some / other components/aspects of the arthritis, Example 7
# Method: The study uses a mouse model of inflammatory disease that occurs in response to an antigenic challenge with Type II collagen according to method described in Nature, 283, 666-668 […]. DBA/1 mice are immunized with a suspension of fetal bovine Type II collagen (1 mg/ml) prepared in complete Freund's adjuvant. The primary injection is given using 0.1 ml of the collagen emulsion giving a total of 0.1 mg of Type II collagen per mouse. The animals are given a booster injection of Type II collagen (100 μg in 0.01M acetic acid) on day 21 by intraperitoneal injection.
# The effect of methotrexate and test compounds racemic PDX, PDX-10a and PDX-10b on the extent of inflammation is determined by visual observation and by direct analysis of paw swelling using caliper measurements.
# [2] = Pharmacokinetics in human (PDX-008, noncompartmental); type: in vivo; settings: for Vd / clearance / half-life: human, plasma, intravenous; for half-life: read-out: t1/2 term
# Method: Bioanalytical methods were developed and validated for quantitation of the 2 pralatrexate C10 diastereomers (PDX-10a and PDX-10b) in human, rat and dog plasma and urine. The basic bioanalytical method involves extraction of PDX-10a and PDX-10b from the matrix utilizing C18 solid-phase extraction (SPE) cartridges followed by derivatization (methylation with acetyl chloride) of the diastereomers for separation detection. The derivatized extracts are injected on a chiral high-performance liquid chromatography (HPLC) column for quantitation of each diastereomer by liquid chromatography-tandem mass spectrometry (LC/MS/MS). The lower limit of quantitation (LLOQ) for both diastereomers in plasma and urine matrices was 0.5 ng/mL.
# In humans, PDX-10b clearance was approximately 50% lower for both renal clearance (CLren) and nonrenal clearance (CLnonren). The lower clearance and ˜2-fold lower volume of distribution at steady state (Vdss) of PDX-10b are likely responsible for the 2-fold higher plasma exposure of PDX-10b compared with PDX-10a that is observed in humans. However, the plasma concentration-time profiles for both diastereomers declined in parallel, and terminal elimination half-life (t1/2term) for both diastereomers was virtually identical. The biological cause for the observed stereoselectivity across species is unknown, but may be due to isomeric differences in plasma protein binding. Isomeric differences in tissue distribution and/or renal and hepatobiliary transport may contribute as well.
# [3] = test system: type II collagen arthritis; assay: Type II collagen arthritis rat model; type: in vivo; settings: female Lewis rats, 0.075, 0.05 or 0.025 mg/kg qd; some / other components/aspects of the arthritis; Example 8
# Method: Female Lewis rats with 17-day developing type II collagen arthritis are treated once daily (qd), orally or intravenously, on days 0-16 of the study with saline vehicle (qd), with Methotrexate (MTX, 0.075, 0.05, or 0.025 mg/kg), or racemic PDX, PDX-10a and PDX-10b (0.075, 0.05, or 0.025 mg/kg). Animals are terminated on study day 17. Efficacy evaluation is based on ankle caliper measurements, expressed as area under the curve (AUC), and terminal hind paw weights, and histopathologic evaluation of ankles and knees.
# [4] = test system: tumor xenotransplant; assay: In vivo xenograft models with solid tumors and lymphomas; settings: nude female mice, IP injection; some / other explants; Example 6
# Method: Nude female mice are inoculated subcutaneously in the right flank with appropriate tumor cells as discussed in Example 5 to establish the xenotransplant. Tumor volume and body weights are monitored twice a week. Once the established tumor reaches 75-150 mm^3 the mice are randomized to a treatment group, either control, racemic PDX, PDX-10a, or PDX-10b. Treatments are administered by IP injection. Phosphate buffered saline is administered as control vehicles.
# [5] = both sexes, 0.81 mg/kg, C1D1, calculated using average BW 85 kg, read-out: Vdss relative to BW
# [6] = both sexes, 30 mg/m2, human, C1D1, 30 mg/m^2, range of the mean for males and females and for PDX-10a and PDX-10b, read-out: CLtot
# [7] = both sexes, 30 mg/m2, human, C1D1, 30 mg/m^2, range of the mean for males and females and for PDX-10a and PDX-10b, read-out: Vdss
# [8] = both sexes, 30 mg/m2, human, C1D1, 30 mg/m^2, range of the mean for males and females and for PDX-10a and PDX-10b
# [9] = both sexes, 30 mg/m2, human, C1D6 or C2D6, 30 mg/m^2, range of the mean for males and females and for PDX-10a and PDX-10b, read-out: CLtot
# [10] = both sexes, 30 mg/m2, human, C1D6 or C2D6, 30 mg/m^2, range of the mean for males and females and for PDX-10a and PDX-10b, read-out: Vdss
# [11] = both sexes, 30 mg/m2, human, C1D6 or C2D6, 30 mg/m^2, range of the mean for males and females and for PDX-10a and PDX-10b
# [12] = 0.81 mg/kg, C1D1, calculated using average BW 85 kg, read-out: CLtot relative to BW
SMILES,antiarthritic activity relative to racemate and other diastereomer [1],"Vd [2, 5] [L/kg]","clearance [2, 6] [mL/min]","Vd [2, 7] [L]","half-life [2, 8] [min]","clearance [2, 9] [mL/min]","Vd [2, 10] [L]","half-life [2, 11] [min]","clearance [2, 12] [mL/min/kg]",antiarthritic activity relative to racemate and other diastereomer [3],xenograft activity relative to racemate and other diastereomer [4],higher plasma exposure compared with PDX-10a ([2]; humans) [fold],lower volume of distribution at steady state (Vdss) compared with PDX-10a ([2]; humans) [fold],nonrenal clearance (CLnonren) lower compared with PDX-10a ([2]; humans),renal clearance (CLren) lower compared with PDX-10a ([2]; humans)
"C#CC[C@@H](Cc1cnc2nc(N)nc(N)c2n1)c1ccc(C(=O)N[C@@H](CCC(=O)O)C(=O)O)cc1 (single isomer, unassigned) [PDX-10a]",increased activity relative to racemic PDX and/or PDX-10b,0.4 to 1.2,191 to 417,37 to 105,720 to 1080,227 to 495,48 to 162,660 to 960,2 to 5,increased activity relative to racemic PDX and/or PDX-10b,increased activity relative to racemic PDX and/or PDX-10b,–,–,–,–
"C#CC[C@H](Cc1cnc2nc(N)nc(N)c2n1)c1ccc(C(=O)N[C@@H](CCC(=O)O)C(=O)O)cc1 (single isomer, unassigned) [PDX-10b]",increased activity relative to racemic PDX and/or PDX-10a,0.4 to 1.2,191 to 417,37 to 105,720 to 1080,227 to 495,48 to 162,660 to 960,2 to 5,increased activity relative to racemic PDX and/or PDX-10a,increased activity relative to racemic PDX and/or PDX-10a,2,~2,approximately 50%,approximately 50%
